Measured values taken from ChEMBL document CHEMBL1201862, “PubChem BioAssay data set” (2004).
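Grown in 96-well plates, cells were treated for 48 hours with each compound at five concentrations. Insufficient inhibition: endpoint recorded as highest concentration tested. GI50 = concentration required for 50% inhibition of growth.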 Activity calls are given as the source filed them. Rule as the data show it: active = GI50 up to about 1.1 µM and inactive = higher.

Key:
Test in all cases: inhibition of tumour cell growth, NCI panel, 48 h
[1] = system: U-251
[2] = system: RPMI-8226
[3] = system: MDA-MB-231
[4] = system: SR
[5] = system: MOLT-4
[6] = system: TK-10
[7] = system: OVCAR-5
[8] = system: HCT-15
[9] = system: EKVX
[10] = system: MDA-MB-435
[11] = system: 786-0
[12] = system: SF-539
[13] = system: HL-60
[14] = system: OVCAR-3
[15] = system: UO-31
[16] = system: IGROV-1
[17] = system: UACC-257
[18] = system: SK-MEL-5
[19] = system: MCF7
[20] = system: SK-MEL-28

SMILES	GI50 [1]	GI50 [2]	GI50 [3]	GI50 [4]	GI50 [5]	GI50 [6]	GI50 [7]	GI50 [8]	GI50 [9]	GI50 [10]	GI50 [11]	GI50 [12]	GI50 [13]	GI50 [14]	GI50 [15]	GI50 [16]	GI50 [17]	GI50 [18]	GI50 [19]	GI50 [20]
CCOc1ccccc1-c1nc2c(s1)C(=O)c1ccccc1C2=O	14.6 µM (inactive)	7.26 µM (inactive)	2.84 µM (inactive)	6.24 µM (inactive)	3.53 µM (inactive)	19.3 µM (inactive)	19.7 µM (inactive)	25.7 µM	17.2 µM (inactive)	2.15 µM (inactive)	16.9 µM (inactive)	16.4 µM (inactive)	1.92 µM (inactive)	2.25 µM (inactive)	12.6 µM (inactive)	12.2 µM (inactive)	12.9 µM (inactive)	5.12 µM (inactive)	12.2 µM (inactive)	16.7 µM (inactive)
COc1cccc2c1-c1c(OC)cccc1SS2	15.7 µM (inactive)	11.4 µM (inactive)	23.7 µM (inactive)	16.9 µM (inactive)	13.4 µM (inactive)	21.9 µM (inactive)	17.8 µM (inactive)	13.4 µM	13.1 µM (inactive)	3.73 µM (inactive)	18.2 µM (inactive)	17.7 µM (inactive)	1.01 µM (active)	16.3 µM (inactive)	22.8 µM (inactive)	17.4 µM (inactive)	11.6 µM (inactive)	13.6 µM (inactive)	20.3 µM (inactive)	16.8 µM (inactive)
Cc1nc2cc(/N=N/c3c(O)ccc4ccccc34)ccc2[nH]1	27.3 µM (inactive)	24.3 µM (inactive)	27.8 µM (inactive)	24.2 µM (inactive)	21 µM (inactive)	> 76.2 µM (inactive)	> 75.5 µM (inactive)	32.3 µM	> 49.9 µM (inactive)	23.1 µM (inactive)	22 µM (inactive)	26.7 µM (inactive)	15.1 µM (inactive)	25.2 µM (inactive)	45.1 µM (inactive)	> 45.3 µM (inactive)	24.8 µM (inactive)	31.9 µM (inactive)	21.2 µM (inactive)	98.6 µM (inactive)
Cn1c(=O)c2c(ncn2Cc2ccc(O)c([N+](=O)[O-])c2)n(C)c1=O	> 100 µM (inactive)	> 100 µM (inactive)	> 100 µM (inactive)	> 100 µM (inactive)	> 100 µM (inactive)	> 100 µM (inactive)	> 100 µM (inactive)	> 100 µM	> 100 µM (inactive)	> 100 µM (inactive)	> 100 µM (inactive)	> 100 µM (inactive)	> 100 µM (inactive)	> 100 µM (inactive)	> 100 µM (inactive)	> 100 µM (inactive)	> 100 µM (inactive)	> 100 µM (inactive)	> 100 µM (inactive)	> 100 µM (inactive)
O=CNCCCN1CCN(CCCNC=O)CC1	> 100 µM (inactive)	> 100 µM (inactive)	> 100 µM (inactive)	> 100 µM (inactive)	> 100 µM (inactive)	> 100 µM (inactive)	> 100 µM (inactive)	> 100 µM	> 100 µM (inactive)	> 100 µM (inactive)	> 100 µM (inactive)	> 100 µM (inactive)	> 100 µM (inactive)	> 100 µM (inactive)	> 100 µM (inactive)	> 100 µM (inactive)	> 100 µM (inactive)	> 100 µM (inactive)	> 100 µM (inactive)	> 100 µM (inactive)
